Test results as given in ChEMBL document CHEMBL1201862, “PubChem BioAssay data set” (2004).
Calls of active or inactive are those of the source.

Experiments:
[1] = target: Protein Rev (Human immunodeficiency virus type 1 group M subtype B (isolate HXB2)(HIV-1), UniProt P04618); assay: blockers of HIV Rev/RRE RNA complex – biochemical, fluorescence polarization, HIV-1, dose response (AID 434976); design: species or system Human immunodeficiency virus 1
[2] = target: T1, Replicative DNA helicase DnaB (Mycobacterium tuberculosis, UniProt P9WMR3); assay: DnaB intein splicing inhibitors, dose response, biochemical, cell-free fluorescence (AID 449749); format: functional
T1 sequence (P9WMR3 whole entry): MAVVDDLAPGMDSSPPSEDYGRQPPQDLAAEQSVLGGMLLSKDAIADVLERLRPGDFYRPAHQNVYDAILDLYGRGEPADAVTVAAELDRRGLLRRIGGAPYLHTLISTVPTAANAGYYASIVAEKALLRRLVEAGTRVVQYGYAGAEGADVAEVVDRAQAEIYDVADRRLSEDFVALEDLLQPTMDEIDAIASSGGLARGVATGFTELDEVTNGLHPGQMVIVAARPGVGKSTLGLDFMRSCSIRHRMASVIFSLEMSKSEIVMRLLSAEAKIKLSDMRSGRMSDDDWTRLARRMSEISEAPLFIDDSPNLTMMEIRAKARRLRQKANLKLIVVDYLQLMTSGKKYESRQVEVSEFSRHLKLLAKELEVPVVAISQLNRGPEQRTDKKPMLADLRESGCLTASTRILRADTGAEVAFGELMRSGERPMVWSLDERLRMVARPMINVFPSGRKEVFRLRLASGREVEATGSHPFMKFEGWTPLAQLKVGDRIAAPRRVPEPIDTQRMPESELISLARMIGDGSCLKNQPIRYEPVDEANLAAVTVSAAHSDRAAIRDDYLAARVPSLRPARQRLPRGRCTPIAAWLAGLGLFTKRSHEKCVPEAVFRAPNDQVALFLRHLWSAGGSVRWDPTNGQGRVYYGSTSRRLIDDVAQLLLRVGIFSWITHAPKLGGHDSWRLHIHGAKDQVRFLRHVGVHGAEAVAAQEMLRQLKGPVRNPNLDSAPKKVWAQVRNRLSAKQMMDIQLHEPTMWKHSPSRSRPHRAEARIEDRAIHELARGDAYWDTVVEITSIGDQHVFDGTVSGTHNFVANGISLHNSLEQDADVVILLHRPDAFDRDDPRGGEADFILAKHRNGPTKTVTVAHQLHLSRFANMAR

[3] = target: T2, Polyadenylate-binding protein 1 (Homo sapiens, UniProt P11940); assay: MLLE domain peptide-binding blockers, IC50 – biochemical, fluorescence polarization, FITC-PAM2 peptide, dose response (AID 602259); format: functional; settings: read-out: IC50_Mean
T2 sequence (P11940 whole entry, the tested form may be a part): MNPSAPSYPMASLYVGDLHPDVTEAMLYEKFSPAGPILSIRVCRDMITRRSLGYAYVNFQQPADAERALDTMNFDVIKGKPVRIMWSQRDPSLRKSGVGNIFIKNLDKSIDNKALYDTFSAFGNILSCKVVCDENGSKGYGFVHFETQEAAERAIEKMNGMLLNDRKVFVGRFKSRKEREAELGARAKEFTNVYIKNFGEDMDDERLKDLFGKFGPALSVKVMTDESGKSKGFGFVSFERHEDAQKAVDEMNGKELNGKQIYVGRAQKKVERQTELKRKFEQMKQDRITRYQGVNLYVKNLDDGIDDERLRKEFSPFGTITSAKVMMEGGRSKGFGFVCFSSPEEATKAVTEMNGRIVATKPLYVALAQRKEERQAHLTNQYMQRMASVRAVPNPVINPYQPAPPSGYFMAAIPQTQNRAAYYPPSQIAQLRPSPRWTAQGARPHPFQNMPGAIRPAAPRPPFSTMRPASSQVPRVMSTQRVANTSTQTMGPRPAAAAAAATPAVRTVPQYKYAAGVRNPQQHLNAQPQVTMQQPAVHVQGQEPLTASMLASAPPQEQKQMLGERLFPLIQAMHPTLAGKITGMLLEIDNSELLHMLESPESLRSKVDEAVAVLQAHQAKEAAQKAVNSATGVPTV

[4] = target: Eukaryotic translation initiation factor 4E (Mus musculus, UniProt P63073); assay: blockers of eIF4G binding by eIF4E – biochemical, TR-FRET, dose response (AID 855); format: functional;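 further: potency for disrupting eIF4E binding to eIF4GI seen as loss of FRET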
Chain of Eukaryotic translation initiation factor 4E (P63073 whole entry): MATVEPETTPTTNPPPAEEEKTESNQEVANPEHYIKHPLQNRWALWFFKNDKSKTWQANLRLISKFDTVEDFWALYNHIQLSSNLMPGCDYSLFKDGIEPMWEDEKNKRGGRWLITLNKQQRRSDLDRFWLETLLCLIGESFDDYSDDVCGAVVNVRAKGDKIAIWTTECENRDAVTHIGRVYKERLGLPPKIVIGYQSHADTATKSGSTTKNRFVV

[5] = target: Female germline-specific tumor suppressor gld-1 (Caenorhabditis elegans, UniProt Q17339); assay: blockers of GLD-1/TGE RNA complex formation – biochemical, fluorescence polarization, C. elegans, dose response (AID 2802);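 further: fluorescence polarization of labeled TGE RNA bound by purified gld-1 protein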
[6] = target: Induced myeloid leukemia cell differentiation protein Mcl-1 (Homo sapiens, UniProt Q07820); format: functional
[7] = target: T2, Polyadenylate-binding protein 1; assay: MLLE binding blockers, Cy5 peptide tracer – biochemical, fluorescence polarization, Cy5-PAM2 peptide, secondary, miRNA deadenylation inhibitor project, dose response (AID 602260); format: functional; settings: read-out: IC50_Mean
[8] = target: T3, Protein RecA (Mycobacterium tuberculosis, UniProt P9WHJ3); assay: Fluorescence Cell-Free Homogeneous Dose Retest to Identify Inhibitors of RecA-Intein Splicing Activity. [Related pubchem assays (depositor defined):AID2097, AID2223, AID489010, AID492950]; format: functional
T3 sequence (P9WHJ3 whole entry): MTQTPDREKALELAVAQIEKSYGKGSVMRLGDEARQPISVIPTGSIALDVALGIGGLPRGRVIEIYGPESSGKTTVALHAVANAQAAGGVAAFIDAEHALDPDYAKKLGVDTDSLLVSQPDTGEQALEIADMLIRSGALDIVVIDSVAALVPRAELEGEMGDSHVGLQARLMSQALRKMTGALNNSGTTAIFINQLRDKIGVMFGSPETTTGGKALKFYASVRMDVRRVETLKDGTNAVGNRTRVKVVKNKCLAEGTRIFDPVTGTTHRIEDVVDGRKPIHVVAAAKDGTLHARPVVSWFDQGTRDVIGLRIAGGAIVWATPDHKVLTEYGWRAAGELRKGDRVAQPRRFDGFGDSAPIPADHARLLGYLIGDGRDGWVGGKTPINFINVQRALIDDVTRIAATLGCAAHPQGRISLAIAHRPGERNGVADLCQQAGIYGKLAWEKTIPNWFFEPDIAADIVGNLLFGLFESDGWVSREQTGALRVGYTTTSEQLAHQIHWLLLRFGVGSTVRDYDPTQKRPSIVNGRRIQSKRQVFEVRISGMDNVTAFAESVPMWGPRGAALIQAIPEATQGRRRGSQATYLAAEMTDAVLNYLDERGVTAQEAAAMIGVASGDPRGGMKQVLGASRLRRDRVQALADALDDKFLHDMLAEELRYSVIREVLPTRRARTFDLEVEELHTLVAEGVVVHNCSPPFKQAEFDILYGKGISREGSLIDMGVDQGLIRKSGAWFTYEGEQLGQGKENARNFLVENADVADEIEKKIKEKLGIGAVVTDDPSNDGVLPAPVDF

[9] = target: E3 ubiquitin-protein ligase XIAP (Homo sapiens, UniProt P98170); assay: Counter Screen using XIAP-Bir3 for Chemical Antagonists of Bir1/2 domains of IAP-family anti-apoptotic proteins. [Related pubchem assays (depositor defined):AID1018, AID1449, AID1514, AID1638, AID1749, AID1750, AID488957, AID488963]
Chain of E3 ubiquitin-protein ligase XIAP (P98170 whole entry): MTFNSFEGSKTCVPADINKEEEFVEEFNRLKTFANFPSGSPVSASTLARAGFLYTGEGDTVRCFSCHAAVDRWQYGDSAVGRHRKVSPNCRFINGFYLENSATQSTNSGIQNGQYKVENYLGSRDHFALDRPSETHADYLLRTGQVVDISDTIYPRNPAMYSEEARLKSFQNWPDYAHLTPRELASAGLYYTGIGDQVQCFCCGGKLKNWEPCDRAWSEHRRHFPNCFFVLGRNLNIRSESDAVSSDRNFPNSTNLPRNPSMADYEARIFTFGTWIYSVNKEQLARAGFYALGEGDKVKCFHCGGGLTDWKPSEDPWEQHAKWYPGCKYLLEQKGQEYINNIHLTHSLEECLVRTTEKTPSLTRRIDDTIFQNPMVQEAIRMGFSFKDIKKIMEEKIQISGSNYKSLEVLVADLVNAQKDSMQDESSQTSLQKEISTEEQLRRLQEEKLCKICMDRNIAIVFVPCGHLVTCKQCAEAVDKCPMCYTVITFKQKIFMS

[10] = Counterscreen for AddAB inhibitors: absorbance-based bacterial cell-based high throughput dose response assay for inhibitors of bacterial viability. [Related pubchem assays (depositor defined):AID435030, AID449728, AID449731, AID488942, AID488955, AID488956]; format: functional
[11] = target: Exodeoxyribonuclease V (Escherichia coli (strain K12), UniProt P04993+P07648+P08394); assay: RecBCD inhibition via phage-restricted bacterial growth – absorbance, V66 E. coli, mutant T4 phage, counter-screen for AddAB inhibitor project, dose response (AID 492957); format: functional, cell-based, Escherichia coli str. K-12 substr. MG1655
Chain of Exodeoxyribonuclease V (P04993 whole entry): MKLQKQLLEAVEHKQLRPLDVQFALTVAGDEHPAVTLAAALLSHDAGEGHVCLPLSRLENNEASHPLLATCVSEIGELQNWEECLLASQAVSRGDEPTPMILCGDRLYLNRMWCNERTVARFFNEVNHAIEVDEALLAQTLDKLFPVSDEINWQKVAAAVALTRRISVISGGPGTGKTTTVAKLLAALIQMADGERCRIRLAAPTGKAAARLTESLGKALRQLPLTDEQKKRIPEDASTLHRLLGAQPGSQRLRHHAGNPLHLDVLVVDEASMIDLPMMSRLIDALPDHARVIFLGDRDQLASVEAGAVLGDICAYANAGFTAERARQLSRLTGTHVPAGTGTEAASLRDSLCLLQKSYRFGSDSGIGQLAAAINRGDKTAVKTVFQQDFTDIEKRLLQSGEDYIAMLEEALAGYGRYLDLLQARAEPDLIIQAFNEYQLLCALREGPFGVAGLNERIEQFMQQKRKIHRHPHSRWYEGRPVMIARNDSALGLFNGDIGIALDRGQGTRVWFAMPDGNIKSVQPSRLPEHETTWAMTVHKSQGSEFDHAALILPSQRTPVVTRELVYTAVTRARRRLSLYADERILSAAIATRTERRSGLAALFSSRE
Chain of Exodeoxyribonuclease V (P07648 whole entry): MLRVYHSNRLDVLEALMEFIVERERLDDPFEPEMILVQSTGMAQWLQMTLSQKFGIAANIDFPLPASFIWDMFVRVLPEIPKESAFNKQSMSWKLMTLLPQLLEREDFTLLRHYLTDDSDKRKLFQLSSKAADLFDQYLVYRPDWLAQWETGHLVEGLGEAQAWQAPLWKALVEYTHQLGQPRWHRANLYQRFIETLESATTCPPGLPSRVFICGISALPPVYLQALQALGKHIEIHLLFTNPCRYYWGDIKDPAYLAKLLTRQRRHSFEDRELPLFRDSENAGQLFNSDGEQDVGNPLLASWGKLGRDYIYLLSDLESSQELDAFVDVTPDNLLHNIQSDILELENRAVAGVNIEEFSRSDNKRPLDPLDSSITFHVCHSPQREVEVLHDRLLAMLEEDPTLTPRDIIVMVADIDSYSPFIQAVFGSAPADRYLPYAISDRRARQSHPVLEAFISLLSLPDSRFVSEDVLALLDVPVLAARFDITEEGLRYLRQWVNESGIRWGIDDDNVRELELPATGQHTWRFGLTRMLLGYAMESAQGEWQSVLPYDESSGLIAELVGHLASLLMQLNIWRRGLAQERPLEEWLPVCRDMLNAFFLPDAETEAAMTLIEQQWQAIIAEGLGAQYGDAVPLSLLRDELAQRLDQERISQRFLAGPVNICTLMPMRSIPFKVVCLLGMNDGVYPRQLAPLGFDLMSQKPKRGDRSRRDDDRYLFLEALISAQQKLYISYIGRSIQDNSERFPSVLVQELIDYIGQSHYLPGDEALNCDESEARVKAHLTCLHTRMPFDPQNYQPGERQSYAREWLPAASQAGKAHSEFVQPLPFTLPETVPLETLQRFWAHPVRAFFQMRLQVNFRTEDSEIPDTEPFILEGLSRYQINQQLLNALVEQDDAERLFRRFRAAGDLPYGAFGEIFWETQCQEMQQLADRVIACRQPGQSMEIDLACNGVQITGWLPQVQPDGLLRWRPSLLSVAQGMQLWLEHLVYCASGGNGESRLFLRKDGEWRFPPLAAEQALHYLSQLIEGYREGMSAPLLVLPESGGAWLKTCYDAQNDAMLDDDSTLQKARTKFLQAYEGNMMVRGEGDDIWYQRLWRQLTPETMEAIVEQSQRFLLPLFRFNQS
Chain of Exodeoxyribonuclease V (P08394 whole entry): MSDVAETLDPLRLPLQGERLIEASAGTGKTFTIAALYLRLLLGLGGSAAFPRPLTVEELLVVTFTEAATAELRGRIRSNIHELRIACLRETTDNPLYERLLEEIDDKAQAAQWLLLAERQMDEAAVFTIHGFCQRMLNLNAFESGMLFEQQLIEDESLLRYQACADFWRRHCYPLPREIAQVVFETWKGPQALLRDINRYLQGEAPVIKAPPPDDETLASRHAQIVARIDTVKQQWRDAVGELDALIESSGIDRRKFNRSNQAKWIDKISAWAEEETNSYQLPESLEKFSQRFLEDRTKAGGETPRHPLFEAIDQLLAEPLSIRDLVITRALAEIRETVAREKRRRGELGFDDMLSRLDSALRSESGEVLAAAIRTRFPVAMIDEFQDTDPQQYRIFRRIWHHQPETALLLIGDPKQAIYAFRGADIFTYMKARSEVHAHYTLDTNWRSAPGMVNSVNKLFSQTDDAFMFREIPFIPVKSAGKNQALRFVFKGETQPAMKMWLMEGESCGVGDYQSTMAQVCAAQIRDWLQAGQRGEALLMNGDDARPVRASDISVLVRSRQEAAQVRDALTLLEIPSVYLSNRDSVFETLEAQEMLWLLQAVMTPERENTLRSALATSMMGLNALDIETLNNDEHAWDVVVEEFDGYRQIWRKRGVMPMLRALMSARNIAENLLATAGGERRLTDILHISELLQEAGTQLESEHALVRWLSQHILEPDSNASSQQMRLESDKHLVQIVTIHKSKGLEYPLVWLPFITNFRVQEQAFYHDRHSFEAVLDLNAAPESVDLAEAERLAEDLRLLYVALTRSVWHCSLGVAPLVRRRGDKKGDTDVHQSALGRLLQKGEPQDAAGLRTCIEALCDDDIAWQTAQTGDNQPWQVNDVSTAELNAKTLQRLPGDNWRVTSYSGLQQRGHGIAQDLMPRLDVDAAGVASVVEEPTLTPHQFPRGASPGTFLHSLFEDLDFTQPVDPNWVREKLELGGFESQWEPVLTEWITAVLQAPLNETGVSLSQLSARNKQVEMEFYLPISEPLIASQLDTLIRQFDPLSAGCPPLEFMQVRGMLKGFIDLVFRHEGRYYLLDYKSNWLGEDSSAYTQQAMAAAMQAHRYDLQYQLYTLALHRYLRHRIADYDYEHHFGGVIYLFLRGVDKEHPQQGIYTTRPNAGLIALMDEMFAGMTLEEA

[12] = target: Phosphoethanolamine/phosphocholine phosphatase (Homo sapiens, UniProt Q8TCT1); assay: SAR assay for compounds that inhibit PHOSPHO1. [Related pubchem assays (depositor defined):AID1545, AID1565, AID1574]
Chain of Phosphoethanolamine/phosphocholine phosphatase (Q8TCT1 whole entry): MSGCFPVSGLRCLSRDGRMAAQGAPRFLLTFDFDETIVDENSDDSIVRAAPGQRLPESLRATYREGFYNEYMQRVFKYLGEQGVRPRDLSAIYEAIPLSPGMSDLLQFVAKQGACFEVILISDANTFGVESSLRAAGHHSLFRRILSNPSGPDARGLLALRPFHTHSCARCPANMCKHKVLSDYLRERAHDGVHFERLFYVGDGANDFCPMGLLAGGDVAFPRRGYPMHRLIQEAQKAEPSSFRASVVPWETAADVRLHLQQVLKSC

[13] = target: Phosphomannomutase 2 (Homo sapiens, UniProt O15305); assay: Counter screen SAR assay for PMM2 inhibitors via a fluorescence intensity assay. [Related pubchem assays (depositor defined):AID1545, AID1574]
Chain of Phosphomannomutase 2 (O15305 whole entry): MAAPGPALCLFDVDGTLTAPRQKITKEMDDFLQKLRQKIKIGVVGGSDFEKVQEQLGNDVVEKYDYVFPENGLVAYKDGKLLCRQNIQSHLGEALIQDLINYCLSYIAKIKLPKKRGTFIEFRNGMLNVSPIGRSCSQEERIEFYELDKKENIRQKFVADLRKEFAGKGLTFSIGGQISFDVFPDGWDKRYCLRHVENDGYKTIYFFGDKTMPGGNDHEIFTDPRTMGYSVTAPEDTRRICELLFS

[14] = target: T4, Mannose-6-phosphate isomerase (Homo sapiens, UniProt P34949); assay: phosphomannose isomerase inhibition – biochemical, fluorescence intensity, confirmation (AID 1535)
T4 sequence (P34949 whole entry): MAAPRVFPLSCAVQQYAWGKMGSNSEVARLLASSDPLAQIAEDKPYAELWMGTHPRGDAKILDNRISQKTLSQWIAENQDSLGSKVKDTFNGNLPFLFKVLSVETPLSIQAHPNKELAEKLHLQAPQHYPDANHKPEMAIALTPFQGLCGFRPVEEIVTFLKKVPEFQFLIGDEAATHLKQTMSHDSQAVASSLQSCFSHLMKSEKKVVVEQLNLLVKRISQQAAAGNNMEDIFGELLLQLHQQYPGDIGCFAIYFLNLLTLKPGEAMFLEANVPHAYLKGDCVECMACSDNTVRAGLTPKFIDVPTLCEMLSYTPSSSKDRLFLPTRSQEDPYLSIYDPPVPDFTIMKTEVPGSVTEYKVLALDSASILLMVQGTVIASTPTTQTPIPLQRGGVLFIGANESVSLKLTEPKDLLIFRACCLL

[15] = target: T5, Alkaline phosphatase, tissue-nonspecific isozyme (Homo sapiens, UniProt P05186); assay: potency against alkaline phosphatase TNAP – biochemical, luminescent, dose response, SAR follow-up (AID 1056)
T5 sequence (P05186 whole entry): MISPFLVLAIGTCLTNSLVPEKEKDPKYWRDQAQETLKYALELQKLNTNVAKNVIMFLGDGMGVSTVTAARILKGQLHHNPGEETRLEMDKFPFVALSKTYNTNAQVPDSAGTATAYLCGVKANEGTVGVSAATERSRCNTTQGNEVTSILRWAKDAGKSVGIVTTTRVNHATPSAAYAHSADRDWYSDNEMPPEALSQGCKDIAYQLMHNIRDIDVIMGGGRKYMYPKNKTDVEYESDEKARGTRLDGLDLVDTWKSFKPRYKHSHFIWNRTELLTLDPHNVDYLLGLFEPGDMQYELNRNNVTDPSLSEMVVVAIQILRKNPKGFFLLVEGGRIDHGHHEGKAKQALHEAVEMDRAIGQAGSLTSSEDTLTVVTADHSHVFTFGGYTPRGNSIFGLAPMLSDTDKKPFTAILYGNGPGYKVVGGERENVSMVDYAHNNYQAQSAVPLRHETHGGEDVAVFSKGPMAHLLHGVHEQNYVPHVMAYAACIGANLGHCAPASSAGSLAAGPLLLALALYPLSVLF

[16] = cells; format: functional, cell-based
[17] = NIH3T3 cell viability loss – ATP luminescence, mouse fibroblasts, counter-screen, dose response (AID 2010); format: functional, cell-based;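 further: cells exposed to compound for about 90 hours before reading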
[18] = target: ATP-dependent molecular chaperone HSP82 (Candida albicans (strain WO-1) (Yeast), UniProt C4YTQ8); assay: steroid-induced GRE reporter decrease in yeast – S. cerevisiae, luminescence, Hsp90 inhibitor project, dose response (AID 2400); format: functional, cell-based;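 further: beta-galactosidase luminescence from glucocorticoid response element reporter as proxy for Hsp90 function; inhibitor potency where signal loss means Hsp90 inhibition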
[19] = fluconazole-exposed Candida albicans growth modulators – fluorescence, retest, confirmation (AID 2467); format: functional, cell-based
[20] = Trypanosoma cruzi growth suppression in host cells – NIH3T3 host cells, beta-gal luminescence, confirmation (AID 2044); format: functional, cell-based;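 further: intracellular parasites grown in NIH/3T3 mouse fibroblasts as host cells; luminescent beta-galactosidase reporter signal from transgenic T. cruzi replicating inside host cells; inhibitors lower the luminescence signal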
[21] = target: Heat shock protein HSP 90-alpha (Homo sapiens, UniProt P07900); format: functional, organism-based
[22] = test system: Vero; assay: cells; format: functional; settings: Chlorocebus sabaeus
[23] = test system: INS1; assay: INS-1E survival protection against cytokine death – cell-based, luminescence, retest, dose response (AID 449756); format: functional; settings: Rattus norvegicus;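 further: cell death triggered by IL-1 beta plus TNF-alpha plus IFN-gamma mixture; protective hits raise ATP signal compared with cytokine alone wells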
[24] = NIH-3T3 fibroblast cytotoxicity, dose response, cytotoxicity control, cell-based, fluorescence, Alamar Blue, secondary assay (AID 2327); format: functional;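 further: NIH-3T3 mouse fibroblasts cultured with fluconazole at 8 µg/mL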
[25] = target: T6, Serine/threonine-protein phosphatase (Candida dubliniensis (strain CD36 / CBS 7987 / NCPF 3949 / NRRLY-17841) (Yeast), UniProt B9W6M3); assay: blockers of CaCl2-induced CDRE-lacZ signaling – S. cerevisiae, luminescence, secondary, dose response (AID 2388); format: functional, cell-based;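 further: yeast reporter cells carrying a calcineurin-responsive lacZ construct stimulated with calcium chloride; luminescent beta-galactosidase reporter signal in whole cells rather than isolated phosphatase activity; potency for inhibition where a drop in reporter signal means calcineurin blockade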
T6 sequence (B9W6M3 whole entry): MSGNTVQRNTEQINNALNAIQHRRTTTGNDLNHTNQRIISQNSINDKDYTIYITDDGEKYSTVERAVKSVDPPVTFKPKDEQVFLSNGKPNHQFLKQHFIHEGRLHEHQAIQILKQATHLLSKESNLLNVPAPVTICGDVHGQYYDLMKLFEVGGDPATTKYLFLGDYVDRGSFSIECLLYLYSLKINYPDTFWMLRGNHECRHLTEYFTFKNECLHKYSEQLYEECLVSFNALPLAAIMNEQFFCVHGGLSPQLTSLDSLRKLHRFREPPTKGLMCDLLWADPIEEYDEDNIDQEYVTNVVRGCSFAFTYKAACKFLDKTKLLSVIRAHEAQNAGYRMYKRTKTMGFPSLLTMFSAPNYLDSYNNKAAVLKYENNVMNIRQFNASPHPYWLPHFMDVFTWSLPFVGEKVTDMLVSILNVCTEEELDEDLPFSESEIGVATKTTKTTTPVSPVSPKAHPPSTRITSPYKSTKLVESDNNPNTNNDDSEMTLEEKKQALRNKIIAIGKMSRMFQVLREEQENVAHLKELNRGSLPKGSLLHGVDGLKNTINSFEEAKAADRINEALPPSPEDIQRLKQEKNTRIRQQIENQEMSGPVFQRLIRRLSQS

[26] = cells; format: functional, cell-based; remark: listed apart in the source

Chain of Protein Rev (P04618 whole entry): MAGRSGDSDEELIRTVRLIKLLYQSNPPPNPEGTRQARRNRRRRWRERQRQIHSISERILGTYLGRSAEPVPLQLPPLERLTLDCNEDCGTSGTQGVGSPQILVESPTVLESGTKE

Nc1ccc(O)c2c1C(=O)c1ccccc1C2=O
IC50 [1]: > 75.4 µM (not active) | AC50 [2]: 79.2 µM (active) | IC50 [3]: 24.3 µM (inactive) | IC50 [4]: 25.7 µM (active) | IC50 [5]: 3.05 µM (active) | IC50 [6]: 4.35 µM (active) | IC50 [7]: > 66 µM (inactive) | EC50 [8]: 39 µM (active) | IC50 [9]: < 0.313 µM (active)

CC(=O)N(/N=C/c1ccc([N+](=O)[O-])o1)c1nc2ccccc2c(=O)n1-c1ccccc1
IC50 [10]: 45.9 µM (inactive) | IC50 [11]: > 119 µM (inactive)

CCN(CC)S(=O)(=O)c1cccc(-n2sc3ccccc3c2=O)c1
IC50 [12]: 0.555 µM (active) | IC50 [13]: > 100 µM (inactive) | IC50 [14]: 61.9 µM (active) | IC50 [15]: > 100 µM (inactive)

CCC(=O)NC(c1cccs1)c1cc(Cl)c2cccnc2c1O (stereo unspecified)
EC50 [16]: > 350 µM (not active) | EC50 [17]: 1.13 µM (active) | IC50 [10]: > 119 µM (inactive) | EC50 [18]: > 150 µM (inactive) | EC50 [19]: 0.48 µM (active) | EC50 [20]: 0.692 µM (active) | AC50 [21]: 3.61 µM (active) | CC50 [22]: 3.84 µM (active) | IC50 [11]: > 119 µM (inactive) | AC50 [23]: 1.28 µM (active) | EC50 [24]: 34.7 µM (active) | EC50 [25]: > 180 µM (inactive) | EC50 [26]: 61.3 µM (active)

Cc1ccc(-n2sc3c4c(ccc3c2=O)C(=O)c2ccccc2C4=O)cc1
IC50 [12]: 2.02 µM (inactive) | IC50 [13]: > 100 µM (inactive) | IC50 [14]: > 50 µM (inactive)
